In patent US20240408216A1, “PROTEIN INHIBITOR OR DEGRADING AGENT, PHARMACEUTICAL COMPOSITION CONTAINING SAME AND PHARMACEUTICAL USE” (JING MEDICINE TECHNOLOGY (SHANGHAI) LTD., priority 2021, published 2024):
pIC50: −log10 of the molar value.

Experiments:
[1] = system: BaF3 (EGFR Del19/T790M/C797S); assay: Cell proliferation IC50 assay (Cell Titer GLO), BaF3 DTC cells; assay type: cell-based; settings: Mus musculus, Ba/F3 EGFR-Del19/T790M/C797S, Table 6, 72 h
Protocol: IC50 of compounds in the present invention was determined by Cell Titer GLO reagent from Promega. The procedures are as follows:
Tumor cells were cultured in specified medium in an incubator at 37° C. and 5% CO2. The cells were passaged periodically. Cells at the logarithmic growth phase were collected for plating at a density of 2000-4000 cells/well. The next day, the compounds of the present invention were serially diluted and added to the cells, with DMSO being the negative control and the culture media without cells being the blank control. The plate was incubated in the incubator for 72 h. The cell viability assay was performed by adding the detection reagents to the cell culture media according to Cell Titer GLO reagent instructions and detecting luminescent signals on an EnVision microplate reader (PerkinElmer).
Inhibition of cell growth by the compounds of the present invention was plotted by Prism Graphpad software for statistically calculating the IC50 of the compound of the present invention.

[2] = system: BaF3 (EGFR L858R/T790M/C797S); assay: Cell proliferation IC50 assay (Cell Titer GLO), BaF3 LTC cells; assay type: cell-based; settings: Mus musculus, Ba/F3 EGFR, Table 6, 72 h
In short: (§1)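 Log-phase cells seeded 2000-4000/well, serial compound dilutions added one day later; DMSO negative, medium-only blank.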

BaF3 (EGFR Del19/C797S) = target: T1, BaF3 (EGFR Del19/C797S) (Homo sapiens, UniProt P00533, C797S, cells depend on it, form not given); assay: Cell proliferation IC50 assay (Cell Titer GLO), BaF3 DC cells; assay type: cell-based, mouse; settings: Table 6, 72 h
T1 construct: BaF3 (EGFR Del19/C797S)|DC|RPMI1640 + 10% FBS
T1 sequence (P00533 with tags, fused parts or gaps DEL746-750/C797S, form open): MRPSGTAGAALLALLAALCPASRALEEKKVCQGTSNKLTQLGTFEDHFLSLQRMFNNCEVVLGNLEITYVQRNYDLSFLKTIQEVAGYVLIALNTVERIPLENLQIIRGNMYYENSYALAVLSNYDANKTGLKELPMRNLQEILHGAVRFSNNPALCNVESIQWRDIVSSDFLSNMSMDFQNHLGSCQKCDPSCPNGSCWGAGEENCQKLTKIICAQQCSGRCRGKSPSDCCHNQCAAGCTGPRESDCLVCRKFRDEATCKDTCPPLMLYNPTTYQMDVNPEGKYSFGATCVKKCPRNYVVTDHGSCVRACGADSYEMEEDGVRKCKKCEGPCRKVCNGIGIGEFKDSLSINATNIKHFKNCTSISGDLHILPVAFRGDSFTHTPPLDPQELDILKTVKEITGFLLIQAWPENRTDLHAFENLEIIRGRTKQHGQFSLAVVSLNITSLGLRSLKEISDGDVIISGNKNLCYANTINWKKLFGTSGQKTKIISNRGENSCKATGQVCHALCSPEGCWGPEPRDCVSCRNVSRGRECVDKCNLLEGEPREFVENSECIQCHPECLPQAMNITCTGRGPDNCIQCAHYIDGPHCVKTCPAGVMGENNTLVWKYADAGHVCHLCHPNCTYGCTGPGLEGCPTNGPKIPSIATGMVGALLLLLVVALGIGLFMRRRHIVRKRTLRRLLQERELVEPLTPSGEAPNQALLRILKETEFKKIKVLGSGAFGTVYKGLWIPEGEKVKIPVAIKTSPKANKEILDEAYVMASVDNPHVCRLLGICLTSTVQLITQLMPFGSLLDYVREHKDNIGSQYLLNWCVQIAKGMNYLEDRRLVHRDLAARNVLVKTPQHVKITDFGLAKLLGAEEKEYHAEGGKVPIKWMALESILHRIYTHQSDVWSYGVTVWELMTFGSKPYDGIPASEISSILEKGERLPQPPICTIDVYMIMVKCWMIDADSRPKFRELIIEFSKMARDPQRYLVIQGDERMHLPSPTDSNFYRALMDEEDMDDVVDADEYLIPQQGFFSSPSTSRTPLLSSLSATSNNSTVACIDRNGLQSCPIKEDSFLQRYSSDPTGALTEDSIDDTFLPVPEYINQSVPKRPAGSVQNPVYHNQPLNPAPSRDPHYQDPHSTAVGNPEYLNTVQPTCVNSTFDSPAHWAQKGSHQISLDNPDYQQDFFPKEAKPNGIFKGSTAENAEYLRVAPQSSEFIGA
In short: as §1

BaF3 (EGFR WT) = assay: Cell proliferation IC50 assay (Cell Titer GLO), BaF3 WT cells; assay type: cell-based; settings: Mus musculus, Ba/F3 EGFR, Table 6, 10 ng/ml EGF, 72 h
In short: as §1

A431 = assay: Cell proliferation IC50 assay (Cell Titer GLO), A431 cells; assay type: cell-based; settings: Homo sapiens, A-431; Table 6; A431, 72 h; read-out: A431 IC50
In short: as §1

| pIC50 [1] | pIC50 [2] | pIC50 (BaF3 (EGFR Del19/C797S)) | pIC50 (BaF3 (EGFR WT)) | pIC50 (A431) | Compound |
| --- | --- | --- | --- | --- | --- |
| 6.11 | < 5.40 | 8.38 | < 5.40 | < 5.40 | CCc1cc(Nc2ncc(-n3cccn3)c(Nc3ccccc3P(C)(C)=O)n2)c(OC)cc1N1CCC(N2CCN(CCOc3cccc4c3CN(C3CCC(=O)NC3=O)C4=O)CC2)CC1 (centres unmarked) [Example E165] |
| 7.58 | 7.19 | 7.69 | 7.10 | < 5.40 | COc1cc(N2CCC(N3CCc4cc(Oc5cccc6c5CN(C5CCC(=O)NC5=O)C6=O)ccc4C3)CC2)c(C2CC2)cc1Nc1ncc(Cl)c(Nc2ccccc2P(C)(C)=O)n1 (centres unmarked) [Example E75] |
| 8.12 | 6.64 | 7.79 | < 5.40 | 5.83 | CCc1cc(Nc2ncc(Cl)c(Nc3ccccc3P(C)(C)=O)n2)c(OC(F)(F)F)cc1N1CCC(N2CCN(CCOc3cccc4c3CN(C3CCC(=O)NC3=O)C4=O)CC2)CC1 (centres unmarked) [Example E152] |
| 8.28 | 7.61 | 8.85 | 6.11 | 5.93 | CCc1cc(Nc2ncc(Cl)c(Nc3ccccc3P(C)(C)=O)n2)c(OC)nc1N1CCC(N2CCN(CCCCOc3cccc4c3CN(C3CCC(=O)NC3=O)C4=O)CC2)CC1 (centres unmarked) [Example E115] |
| 7.81 | 7.34 | 8.30 | 6.25 | 5.93 | COc1cc(C2CCN(C3CCN(CCCCOc4cccc5c4CN(C4CCC(=O)NC4=O)C5=O)CC3)CC2)c(OC)cc1Nc1ncc(Cl)c(Nc2ccccc2P(C)(C)=O)n1 (centres unmarked) [Example E98] |
| 7.73 | 6.94 | 8.28 | 6.52 | 5.85 | COc1cc(N2CCC(N3CCN(CCC#Cc4cccc5c4CN(C4CCC(=O)NC4=O)C5=O)CC3)CC2)c(CO)cc1Nc1ncc(Cl)c(Nc2ccccc2P(C)(C)=O)n1 (centres unmarked) [Example E91] |
| 7.94 | 7.12 | 8.18 | 5.97 | 5.89 | CCc1cc(Nc2ncc(Cl)c(Nc3ccccc3P(C)(C)=O)n2)c(OC)cc1N1CCC(N2C[C@@H]3C[C@H]2CN3CCOc2cccc3c2CN(C2CCC(=O)NC2=O)C3=O)CC1 (some centres unmarked) [Example E137] |
| 7.45 | 6.57 | 7.80 | 5.76 | 5.98 | CCc1cc(Nc2ncc(Cl)c(Nc3ccccc3P(C)(C)=O)n2)c(OC)cc1N1CCC(N2CCN(CCCCCc3ccc4c(N5CCC(=O)NC5=O)nn(C)c4c3)CC2)CC1 [Example E65] |
| 8.01 | 7.16 | 7.82 | 7.12 | 6.08 | CCc1cc(Nc2ncc(Cl)c(Nc3ccccc3P(C)(C)=O)n2)cc(OC)c1N1CCC(N2CCN(CCC#Cc3cccc4c3CN(C3CCC(=O)NC3=O)C4=O)CC2)CC1 (centres unmarked) [Example E93] |
| 8.32 | 7.82 | 8.51 | 5.97 | 5.92 | CCc1cc(Nc2ncc(Cl)c(Nc3ccccc3P(C)(C)=O)n2)c(OC)cc1N1CCC(N2CCN(CC/C=C\c3cccc4c3CN(C3CCC(=O)NC3=O)C4=O)CC2)CC1 (centres unmarked) [Example E37] |
| 7.14 | 6.34 | 7.66 | < 5.40 | < 5.40 | CCc1cc(Nc2ncc(Cl)c(Nc3ccccc3P(C)(C)=O)n2)c(OC)cc1N1CCC(N2CCN(C3(CC#Cc4cccc5c4CN(C4CCC(=O)NC4=O)C5=O)CC3)CC2)CC1 (centres unmarked) [Example E57] |
| 7.79 | 7.35 | 7.87 | 7.17 | 6.19 | CCc1cc(Nc2ncc(Cl)c(Nc3ccccc3P(C)(C)=O)n2)cc(Cl)c1N1CCC(N2CCN(CCC#Cc3cccc4c3CN(C3CCC(=O)NC3=O)C4=O)CC2)CC1 (centres unmarked) [Example E77] |
| 8.27 | 7.65 | 8.62 | 6.05 | 5.96 | COc1cc(N2CCC(N3CCN(CCC#Cc4cccc5c4CN(C4CCC(=O)NC4=O)C5=O)CC3)CC2)c(CC#N)cc1Nc1ncc(Cl)c(Nc2ccccc2P(C)(C)=O)n1 (centres unmarked) [Example E180] |
| 7.42 | 5.52 | 8.82 | 6.01 | 5.96 | CCc1cc(Nc2ncc(-c3cn[nH]c3)c(Nc3ccccc3P(C)(C)=O)n2)c(OC)cc1N1CCC(N2CCN(CCOc3cccc4c3CN(C3CCC(=O)NC3=O)C4=O)CC2)CC1 (centres unmarked) [Example E167] |
| 8.26 | 7.66 | 8.34 | 6.19 | 6.00 | COc1cc(N2CCC(N3CCN(CCCCOc4cccc5c4CN(C4CCC(=O)NC4=O)C5=O)CC3)CC2)c(C#N)cc1Nc1ncc(Cl)c(Nc2ccccc2P(C)(C)=O)n1 (centres unmarked) [Example E103] |
| 8.21 | 7.32 | 8.48 | 6.05 | 5.88 | CCc1cc(Nc2ncc(Cl)c(Nc3ccccc3P(C)(C)=O)n2)c(OC)cc1N1CCC(N2C[C@@H](C)N(CCCCOc3cccc4c3CN(C3CCC(=O)NC3=O)C4=O)[C@@H](C)C2)CC1 (some centres unmarked) [Example E129] |
| 7.72 | 7.14 | 7.36 | < 5.40 | < 5.40 | CCc1cc(Nc2nc(Nc3ccccc3P(C)(C)=O)c3cc[nH]c3n2)c(OC)cc1N1CCC(N2CCN(CCOc3cccc4c3CN(C3CCC(=O)NC3=O)C4=O)CC2)CC1 (centres unmarked) [Example E126] |
| 7.39 | 6.71 | 7.48 | 6.67 | 5.78 | COc1cc2c(cc1Nc1ncc(Cl)c(Nc3ccccc3P(C)(C)=O)n1)CCN(C1CCN(CCCCOc3cccc4c3CN(C3CCC(=O)NC3=O)C4=O)CC1)C2 (centres unmarked) [Example E86] |
| 7.80 | 7.25 | 8.25 | 6.73 | 6.04 | COc1cc(N2CCC(N3CCN(CCCCOc4cccc5c4CN(C4CCC(=O)NC4=O)C5=O)CC3)CC2)c(-c2cnn(C)c2)cc1Nc1ncc(Cl)c(Nc2ccccc2P(C)(C)=O)n1 (centres unmarked) [Example E146] |
| 7.98 | 7.12 | 8.49 | 5.76 | 5.45 | CCc1cc(Nc2ncc(Cl)c(Nc3ccccc3P(C)(C)=O)n2)c(OC)cc1N1CCC(N2CCN(CCOc3cccc4c3CN(C3CCC(=O)NC3=O)C4=O)C(C)(C)C2)CC1 (centres unmarked) [Example E108] |
| 7.34 | 6.76 | 7.69 | 5.97 | 5.97 | CCc1cc(Nc2ncc(Cl)c(Nc3ccccc3P(C)(C)=O)n2)c(OC)cc1N1CCC(N2CCN(CCCC#Cc3ccc4c(N5CCC(=O)NC5=O)nn(C)c4c3)CC2)CC1 [Example E97] |
| 7.94 | 7.29 | 8.28 | < 5.40 | 5.42 | CCc1cc(Nc2ncc(Cl)c(Nc3ccccc3P(C)(C)=O)n2)c(OC)cc1N1CCC(N2CCN(CCCCOc3cccc4c3CN(C3CCC(=O)NC3=O)C4=O)C(=O)C2)CC1 (centres unmarked) [Example E87] |
| 8.23 | 7.35 | 8.89 | 6.82 | 5.93 | COc1cc(N2CCC(N3CCN(CCCCOc4cccc5c4CN(C4CCC(=O)NC4=O)C5=O)CC3)CC2)c(CC#N)cc1Nc1ncc(Cl)c(Nc2ccccc2P(C)(C)=O)n1 (centres unmarked) [Example E179] |
| 8.02 | 7.61 | 8.51 | 6.27 | 5.95 | COc1cc(N2CCC(N3CCC4(CCC(=Cc5cccc6c5CN(C5CCC(=O)NC5=O)C6=O)CC4)C3)CC2)c(C2CC2)cc1Nc1ncc(Cl)c(Nc2ccccc2P(C)(C)=O)n1 (centres unmarked) [Example E36] |
| 7.69 | 6.98 | 7.74 | < 5.40 | < 5.40 | COCc1cc(Nc2ncc(Cl)c(Nc3ccccc3P(C)(C)=O)n2)c(OC)cc1N1CCC(N2CCN(CCCCOc3cccc4c3CN(C3CCC(=O)NC3=O)C4=O)CC2)CC1 (centres unmarked) [Example E125] |
| 8.16 | 7.29 | 8.00 | < 5.40 | 5.98 | CCc1cc(Nc2ncc(Cl)c(Nc3ccccc3P(C)(C)=O)n2)c(OC)cc1N1CCC(N2CCN([C@H]3C[C@H](Oc4cc5c(cc4F)C(=O)N(C4CCC(=O)NC4=O)C5)C3)CC2)CC1 (some centres unmarked) [Example E205] |
| 7.98 | 7.08 | 8.19 | < 5.40 | 5.94 | CCc1cc(Nc2ncc(Cl)c(Nc3ccccc3P(C)(C)=O)n2)c(OC)cc1N1CCC(N2CCN(CCOCCc3cccc4c3CN(C3CCC(=O)NC3=O)C4=O)CC2)CC1 (centres unmarked) [Example E109] |
| 7.82 | 6.94 | 9.15 | 6.78 | 6.46 | CCc1cc(Nc2ncc(-c3cnn(C)c3)c(Nc3ccccc3P(C)(C)=O)n2)c(OC)cc1N1CCC(N2CCN([C@H]3C[C@@H](Oc4cccc5c4CN(C4CCC(=O)NC4=O)C5=O)C3)CC2)CC1 (some centres unmarked) [Example E69] |
